Several values for one entry are separate records, joined by “and”; a condition that tells them apart may be missing. Identical values can stand only once. Like-named read-outs stand apart in the source and are kept apart here.
Tests used:
Shh protein = Shh protein localization in floor plate cells of treated chick embryos; assay type: in vivo; settings: embryos treated after floor plate induction
[1] = tested on: primary human lymphoblasts; assay: Cholesterol Biosynthesis Assay (sterol profiles of cultured cells); assay type: cell-based; settings: for Percent Sterols: 2. C28 Sterols / Percent Sterols: 3. C29 Sterols / Percent Sterols: Cholesterol / Percent Sterols: d. Zymosterol / Percent Sterols: e. Cholesta-8(14)-en-3ß-ol / Percent Sterols: f. 7 Dehydrocholesterol / Total Sterols (µg/mg protein) / Percent Sterols: c. Cholesta-7,24-dien-3ß-ol: five days
Shh = target: T1, Shh (Mus musculus, UniProt Q62226); assay: Shh autoprocessing in stably transfected HK293 cells (immunoblot); assay type: cell-based; settings: added during the 24-hour induction period; doses up to 5-fold higher than those required to completely inhibit Shh signaling
T1 construct: expressed in transfected cells; host or cells: HK293 cells, Ecdysone-Inducible Mammalian Expression System (Invitrogen)
T1 sequence (Q62226 25-437): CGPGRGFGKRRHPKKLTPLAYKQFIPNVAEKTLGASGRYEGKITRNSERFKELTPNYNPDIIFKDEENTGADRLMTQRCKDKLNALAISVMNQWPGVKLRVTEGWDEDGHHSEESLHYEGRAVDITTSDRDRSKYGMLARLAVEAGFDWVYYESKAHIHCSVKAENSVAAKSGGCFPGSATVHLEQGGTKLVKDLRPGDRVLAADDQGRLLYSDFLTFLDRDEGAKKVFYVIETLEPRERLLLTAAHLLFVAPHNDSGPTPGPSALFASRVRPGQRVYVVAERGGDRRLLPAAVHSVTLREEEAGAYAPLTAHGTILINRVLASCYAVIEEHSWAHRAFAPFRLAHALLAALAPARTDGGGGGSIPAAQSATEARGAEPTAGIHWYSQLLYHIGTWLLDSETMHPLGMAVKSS
Source text: To examine potential effects of these compounds on Shh processing we utilized HK293 cells cultured in lipid-depleted serum and carrying a stable integrated construct for expression of Shh under ecdysone-inducible control (47). Shh protein expression in these cells can be induced by addition of muristerone A, an ecdysone analog.
• 1. M. Hammerschmidt, A. Brook, A. P. McMahon, Trends Genet, 13, 14-21 (1997). • 2. C. Chiang, et al., Nature, 383,407-413 (1996). • 3. Y. Tanabe, T. M. Jessell, Science 274, 1115-1123 (1996). • 4. T. P. Yamaguchi, Curr. Opin. Genet. Dev. 7, 513-518 (1997). • 5. N. Shubin, C. Tabin, S. Carroll, Nature 388, 639-648 (1997). • 6. A. E. Oro, et al., Science 276, 817-821 (1997). • 7. M. M. Cohen, K. K. Sulik, J. Craniofac. Genet. Deve. Biol. 12, 196-244 (1992). • 8. E. Belloni, et al., Nature Genet. 14, 353-356 (1996). • 9. E. Roessler, et al., Nature Genet. 14, 357-360 (1996). • 10. J. A. Porter, et al., Nature 374, 363-366 (1995). • 11. J. A. Porter, K. E. Young, P. A. Beacy, Science 274, 255-259 (1996b). • 12. J. J. Lee, et al., Science 266, 1528-1537 (1994). • 13. J. A. Porter, et al., Cell 86, 21-34 (1996a). • 14. C. Roux, Arch. Franc. Pediatr. 21, 451-464 (1964). • 15. C. Roux, C. R. Soc. Biol. 160, 1353-1357 (1966). • 16. D. B. Dehart, L. Lanoue, G. S. Tinit, K. K. Sulik, Am J. Med. Genet. 68, 328-337 (1997). • 17. M. Kraml, J. F. Bagli, D. Dvornik, Biochem. and Biophysical Res. Com. 15, 455-457 (1964). • 18. J. Avigan, D. Steinberg, H. E. Vroman, M. J. Thompson, E. Mosettig, J. Biol. Chem 235, 3123-3126 (1960). • 19. R. B. Clayton, A. N. Nelson, I. D. Frantz Jr., J. Lipid Res. 4, 166-178 (1963). • 20. J. Aufenanger, J. Pill, K. Stegmeier, F. H. Schmidt, Horm. Metabol. Res. 17, 612-613 (1986). • 21. […] G. Popjak, A. Meenean, E. J. Parish, W. D. Nes, J. Biol. Chem 264,6230-6238 (1989). • 23. H. Yoshikawa, Brain Deve. 13, 115-120 (1991). • 24. R. I. Kelley, et al., Am. J. Of Med. Gen. 66, 478-484 (1996). • 25. G. S. Tint, et al., New England Journal of Medicine 330, 107-113 (1994). • 26. T.E. Willnow, et al., Proc. Natl. Acad. Sci USA 93, 8460-8464 (1996). • 27. S. Stefansson, D. A. Chappell, K. M. Argraves, D. K. Strickland, W. S. Argraves, J. Biol. Chem. 270, 19417-19421 (1995). • 28. W. Binns, L. F. James, J. L. Shupe, G. Everett, Am. J. Vet. Res. 24, 1164-1174 (1963). • 29. R. F. Keeler, W. Binns, Teratology 1, 5-10 (1968). • 30. P. A. Beachy, et al., CSH Symp. Quant. Biol. 62, in press (1997). • 31. E. D. Carstea, et al., Science 277, 228-231 (1997). • 32. S. K. Loftus, et al., Science 277, 232-235 […]. • 33. L. V. Goodrich, L. Milenkovic, K. M. Higgins, M. P. Scott, Science 277, 1109-1113 (1997). • 34. H. Kumagai, K. T. Chun, R. D. Simoni, J. Biol. Chem. 270, 19107-19113 (1995). • 35. G. Gil, J. R. Faust, D. J. Chin, J. L. Goldstien, M. S. Brown, Cell 41, 249-258 (1985). • 36. X. Hua, A. Nohturfft, J. L. Goldstein, M. S. Brown, Cell 87, 415-426 (1996). • 37. M. S. Brown, J. L. Goldstein, Cell 89, 331-340 (1997). • 38. M. M. Bryden, C. Perry, R. F. Keeler, Teratology 8, 18-28 (1973). • 39. M. L. Omnell, F. R. P. Sim, R. F. Keeler, L. C. Harne, K. W. Brown, Teratology 42, 105-119 (1990). • 40. Fertile chick eggs (white leghorn) were placed in a humidified incubator at 37.5° C in a rotating tray for 14 hours. […] The window was taped and the eggs incubated for an additional 4 days. The embryos were dissected in phosphate buffered saline (PBS, pH 7.2).

BMP7 = assay: Neural plate explant response to BMP7 (migratory HNK-1 positive cells); assay type: cell-based, chick; settings: 10 µM, 100 ng/ml BMP7, ventral neural plate explants
rat hepatoma cells = assay: Cholesterol Esterification Assay (esterification of plasma membrane cholesterol); assay type: cell-based
Source text: Table 1. […] Table 1. Effects of synthetic and plant-derived compounds on cholesterol homeostasis. […]

endogenous Shh signaling = assay: Midline neural plate/notochord explant assay of endogenous Shh signaling; assay type: cell-based, chick
His6Hh-C = target: T2, His6Hh-C (Drosophila melanogaster, UniProt Q02936); assay: In vitro Hh autoprocessing reaction with purified components; assay type: biochemical
T2 construct: made in house
T2 sequence (Q02936 252-471): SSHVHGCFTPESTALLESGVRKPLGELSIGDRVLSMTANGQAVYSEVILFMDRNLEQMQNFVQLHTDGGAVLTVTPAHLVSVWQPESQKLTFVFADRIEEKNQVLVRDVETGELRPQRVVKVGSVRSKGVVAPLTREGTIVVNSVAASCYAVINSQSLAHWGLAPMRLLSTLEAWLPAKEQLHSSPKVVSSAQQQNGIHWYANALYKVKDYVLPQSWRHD

chick embryos = tested on: chick embryos
Source text: • 1. M. Hammerschmidt, A. Brook, A. P. McMahon, Trends Genet, 13, 14-21 (1997). • 2. C. Chiang, et al., Nature, 383,407-413 (1996). • 3. Y. Tanabe, T. M. Jessell, Science 274, 1115-1123 (1996). • 4. T. P. Yamaguchi, Curr. Opin. Genet. Dev. 7, 513-518 (1997). • 5. N. Shubin, C. Tabin, S. Carroll, Nature 388, 639-648 (1997). • 6. A. E. Oro, et al., Science 276, 817-821 (1997). • 7. M. M. Cohen, K. K. Sulik, J. Craniofac. Genet. Deve. Biol. 12, 196-244 (1992). • 8. E. Belloni, et al., Nature Genet. 14, 353-356 (1996). • 9. E. Roessler, et al., Nature Genet. 14, 357-360 (1996). • 10. J. A. Porter, et al., Nature 374, 363-366 (1995). • 11. J. A. Porter, K. E. Young, P. A. Beacy, Science 274, 255-259 (1996b). • 12. J. J. Lee, et al., Science 266, 1528-1537 (1994). • 13. J. A. Porter, et al., Cell 86, 21-34 (1996a). • 14. C. Roux, Arch. Franc. Pediatr. 21, 451-464 (1964). • 15. C. Roux, C. R. Soc. Biol. 160, 1353-1357 (1966). • 16. D. B. Dehart, L. Lanoue, G. S. Tinit, K. K. Sulik, Am J. Med. Genet. 68, 328-337 (1997). • 17. M. Kraml, J. F. Bagli, D. Dvornik, Biochem. and Biophysical Res. Com. 15, 455-457 (1964). • 18. J. Avigan, D. Steinberg, H. E. Vroman, M. J. Thompson, E. Mosettig, J. Biol. Chem 235, 3123-3126 (1960). • 19. R. B. Clayton, A. N. Nelson, I. D. Frantz Jr., J. Lipid Res. 4, 166-178 (1963). • 20. J. Aufenanger, J. Pill, K. Stegmeier, F. H. Schmidt, Horm. Metabol. Res. 17, 612-613 (1986). • 21. […] G. Popjak, A. Meenean, E. J. Parish, W. D. Nes, J. Biol. Chem 264,6230-6238 (1989). • 23. H. Yoshikawa, Brain Deve. 13, 115-120 (1991). • 24. R. I. Kelley, et al., Am. J. Of Med. Gen. 66, 478-484 (1996). • 25. G. S. Tint, et al., New England Journal of Medicine 330, 107-113 (1994). • 26. T.E. Willnow, et al., Proc. Natl. Acad. Sci USA 93, 8460-8464 (1996). • 27. S. Stefansson, D. A. Chappell, K. M. Argraves, D. K. Strickland, W. S. Argraves, J. Biol. Chem. 270, 19417-19421 (1995). • 28. W. Binns, L. F. James, J. L. Shupe, G. Everett, Am. J. Vet. Res. 24, 1164-1174 (1963). • 29. R. F. Keeler, W. Binns, Teratology 1, 5-10 (1968). • 30. P. A. Beachy, et al., CSH Symp. Quant. Biol. 62, in press (1997). • 31. […]

Shh-N = assay: Intermediate neural plate explant response to exogenous Shh-N protein; assay type: cell-based, chick
[2] = read-out: Percent Inhibition (incorporation of label into cholesteryl ester*) ^3H-Cholesterol
[3] = read-out: Percent Inhibition (incorporation of label into cholesteryl ester*) ^14C-Oleic Acid

CC1=C2C(=O)[C@H]3[C@@H](CC=C4C[C@@H](O)CC[C@@]43C)[C@@H]2CC[C@]12O[C@@H]1C[C@H](C)CN[C@H]1[C@H]2C [Jervine, jervine]
localization of Shh protein within floor plate cells (Shh protein): normal apical localization of Shh protein | Percent Sterols: a. Desmosterol [1]: 2.7% and 2.5% and 2.4% | Percent Sterols: 2. C28 Sterols ([1]; 1.25 µM): 1.2% | Percent Sterols: 3. C29 Sterols ([1]; 1.25 µM): 0.8% | Percent Sterols: Cholesterol ([1]; 1.25 µM): 90% | Percent Sterols: d. Zymosterol ([1]; 1.25 µM): 1.7% | Percent Sterols: e. Cholesta-8(14)-en-3ß-ol ([1]; 1.25 µM): 1.0% | Percent Sterols: f. 7 Dehydrocholesterol ([1]; 1.25 µM): 1.5% | Total Sterols (µg/mg protein) ([1]; 1.25 µM): 8.8 µg/mg protein | Percent Sterols: 2. C28 Sterols ([1]; 2.5 µM): 0.7% | Percent Sterols: 3. C29 Sterols ([1]; 2.5 µM): 0.8% | Percent Sterols: Cholesterol ([1]; 2.5 µM): 90% | Percent Sterols: c. Cholesta-7,24-dien-3ß-ol ([1]; 2.5 µM): 0.5% | Percent Sterols: d. Zymosterol ([1]; 2.5 µM): 2.0% | Percent Sterols: e. Cholesta-8(14)-en-3ß-ol ([1]; 2.5 µM): 1.7% | Percent Sterols: f. 7 Dehydrocholesterol ([1]; 2.5 µM): 1.4% | Total Sterols (µg/mg protein) ([1]; 2.5 µM): 8.4 µg/mg protein | Percent Sterols: 2. C28 Sterols ([1]; 5.0 µM): 0.7% | Percent Sterols: 3. C29 Sterols ([1]; 5.0 µM): 1.6% | Percent Sterols: Cholesterol ([1]; 5.0 µM): 88% | Percent Sterols: c. Cholesta-7,24-dien-3ß-ol ([1]; 5.0 µM): 0.5% | Percent Sterols: d. Zymosterol ([1]; 5.0 µM): 2.3% | Percent Sterols: e. Cholesta-8(14)-en-3ß-ol ([1]; 5.0 µM): 2.3% | Percent Sterols: f. 7 Dehydrocholesterol ([1]; 5.0 µM): 1.3% | Total Sterols (µg/mg protein) ([1]; 5.0 µM): 10 µg/mg protein | Shh-Np production and accumulation of unprocessed precursor (Shh): did not diminish Shh-Np production nor induce accumulation of unprocessed precursor | Induction of migratory HNK-1 positive cells by BMP7 (BMP7): not inhibited | inhibition at 2.5 µM (rat hepatoma cells; [2]): 24% | inhibition at 2.5 µM (rat hepatoma cells; [3]): 28% | inhibition at 5 µM (rat hepatoma cells; [2]): 44% | inhibition at 5 µM (rat hepatoma cells; [3]): 36% | inhibition at 10 µM (rat hepatoma cells; [2]): 50% | inhibition at 10 µM (rat hepatoma cells; [3]): 49% | Higher doses that fully inhibit HNF3β and Isl-1 induction (endogenous Shh signaling): 4.0 µM | Intermediate doses that block induction of HNF3β while permitting induction of Isl-1 (endogenous Shh signaling): 0.5 µM | His6Hh-C autocleavage reaction in the presence of compound without sterol (His6Hh-C): does not proceed | interference with cholesterol-stimulated autoprocessing (His6Hh-C): does not interfere with autoprocessing | Holoprosencephaly induced in chick embryos (chick embryos; in ovo exposure at the intermediate to definitive streak stage, Fig. 2: 10 µM jervine): induced external malformations characteristic of HPE | embryos displayed normal morphology (chick embryos; in ovo, highest concentrations tested, 50µM): 5/10 | concentration that inhibits the repression of Pax7 expression by 2 nM Shh-N (Shh-N): 0.125 µM | doses at which HNF3β and Isl-1 induction are completely blocked (Shh-N): 0.5 µM | intermediate levels at which induction of HNF3β is blocked while induction of Isl-1 is maintained or expanded (Shh-N): 0.25 µM

— EP1067939B1, “USE OF STEROIDAL ALKALOID DERIVATIVES AS INHIBITORS OF HEDGEHOG PROTEIN SIGNALING PATHWAYS” (The Johns Hopkins University, priority 1998, dated 1999)
